Entries after “also recorded” stand apart in the source; their conditions may differ. Where a SMILES comes first, the peptide text is derived from it. Bridges are numbered along the chain shown (N, C = ends). Where no end group is shown, it is not given here.

One data set concerns TC-1 tumor. As to the kind of experiment: TC-1 subcutaneous tumor model in C57BL/6 mice. Type of data set: in vivo. The conditions noted are these: 80 μM, intratumoral route. How it is done: Six-to-eight weeks-old, C57BL/6 female mice of 22 g of weight were supplied by the National Center for Laboratory Animal Production (CENPALAB, Havana, Cuba) and housed under pathogen-free conditions at the Bioterium of the Center for Genetic Engineering and Biotechnology (CIGB). Experiments were carried out in agreement with regulations for proper handling and care of laboratory animals. Tumor volume was measured on each case (estimated by the formula: volume=a^2×(b/2), where a is the width and b is the length of the tumor) and animal survival was evaluated.
Survival was compared between groups by the Logrank test. The statistic parameters were obtained with the aid of the GraphPad Prism 4.0 software (GraphPad Software, San Diego, Calif., USA).
C57BL/6 mice were injected in the right flank by subcutaneous route (s.c.) with 50 000 TC-1 cells. When tumors were detectable, mice were randomized into treatment groups to evaluate the treatment with the peptides subject of study, to evaluate them by different administration routes. Tumor-bearing animals received 6 administrations in alternate days, with 80 μM of the subject peptide, solely received the vehicle as control. Five mice were used for each group. Animals were housed under pathogen-free conditions, and procedures were conducted in agreement with good practices for laboratory animal handling and care.

Data set [1] concerns human tumor cell lines (A549, A375, PC-3, U87). The conditions noted are these: peptide combined with prodigiosin.
A further data set relates to primary fibroblasts. The conditions noted are these: peptide combined with prodigiosin.
A further data set has as its system human tumor cells. Briefly: Cytotoxic activity screening of peptide library on human tumor cell lines, SRB method. Type of data set: cell-based. The conditions noted are these: SRB method; cytotoxic = dose-dependent 50% inhibition of proliferation, GI50 below 100 μM in at least one cell line. The method, then:
(§1) Negative control cells were cultured on a volume of vehicle equal to that of the experimental samples. An “x-y” curve (dose-response) was established with the percent of surviving cells, compared in respect to the negative control cells, and the following parameters were estimated: 50% growth inhibition (GI50); Total growth inhibition (TGI); and the lethal concentration 50 (LC50), that is the concentration causing the 50% of cell death (Boyd M R, Paull K D, and Rubinstein L R (1992) “Data display and analysis strategies for the NCI Disease Oriented In-Vitro Antitumor Drug Screen, in Cytotoxic Anticancer Drugs: Models and Concept for Drug Discovery and Development” (Baleriote F A, Corbett T H and Baker L H eds) pp 11-34, Kluwer Academia Publishers, Boston).
(§2) Were considered as cytotoxic peptides all those peptides being able of inhibiting 50% of the cellular proliferation, in a dose-dependent manner, and showing GI50 values below 100 μM, at least in one of the cell lines studied. The human tumor cell lines used were: HEp-2 (larynx carcinoma), A549 (lung epithelial adenocarcinoma), M14 (melanoma), Colo 205 (colon adenocarcinoma), Ls174T (colon adenocarcinoma), LnCAP (prostate carcinoma), PC-3 (prostate carcinoma) and H 125 (non-small cell lung adenocarcinoma). Represented are primary sequences for the designed peptides, the code used for its generation and their respective cytotoxic capacity on human tumor cells.

In another data set the test system is M14 (melanoma). Briefly: SRB cytotoxicity on M14 melanoma cells. The conditions noted are these: M14 human melanoma cells. Type of data set: cell-based. How it is done:
as §1, §2
The inability of peptide N06P89 (cyclized by two cysteins located at both N- and C-termini) to inhibit cellular proliferation in M14 human melanoma tumor cells is shown in FIG. 7. […] At the same FIG. 7, it is also shown the need for blocking the C-terminus (for example, an amide group or other modification) to achieve the cytotoxic capacity expected for the peptide region of interest.

On to `CC(C)C[C@@H]1NC(=O)[C@H](Cc2ccccc2)NC(=O)[C@H](CC(=O)O)NC(=O)[C@H](CCCNC(=N)N)NC(=O)CNC(=O)[C@H]([C@@H](C)O)NC(=O)[C@H](CC(N)=O)NC(=O)[C@@H](NC(=O)[C@H](CC(N)=O)NC(=O)[C@H](Cc2ccccc2)NC(=O)CNC(=O)[C@H](Cc2ccc(O)cc2)NC(=O)[C@@H](NC(=O)[C@@H](NC(=O)[C@H](CC(=O)O)NC(=O)CN)[C@@H](C)O)C(C)C)CSSC[C@@H](C(=O)N[C@H](C(=O)N[C@H](C(=O)N[C@@H](CO)C(N)=O)[C@@H](C)O)[C@@H](C)O)NC1=O` [Peptide A08P28s-s] (H-GDTVYGFNCNTGRDFLCTTS-NH2; disulfide 9-17), for which, in the data set on TC-1 tumor, the survival result was “intermediate survival block”. In data set [1], the GI50 values result was “nm range” and the “effect on the cytotoxic activity of prodigiosin” value was “enhanced”. Moreover, the “decrease of the cytotoxic activity of prodigiosin on primary fibroblasts” value in the data set with primary fibroblasts is reported as “at least one order of magnitude”.
For `CC[C@H](C)[C@H](NC(=O)[C@H](CC(N)=O)NC(=O)[C@@H](NC(=O)[C@H](CO)NC(=O)[C@H](CC(C)C)NC(=O)[C@H](CC(=O)O)NC(=O)[C@@H](NC(=O)[C@@H](NC(=O)[C@H](CC(N)=O)NC(=O)[C@H](CO)NC(=O)[C@H](CO)NC(=O)[C@H](C)NC(=O)[C@@H](N)CC(N)=O)C(C)C)[C@@H](C)O)C(C)C)C(=O)NCC(=O)NCC(=O)N[C@@H](Cc1c[nH]cn1)C(=O)N[C@@H](CCC(N)=O)C(=O)N[C@@H](C)C(=O)N1CCC[C@H]1C(=O)N[C@@H](CC(=O)O)C(N)=O` [Peptide E02P04] (H-NASSNVTDLSVNIGGHQAPD-NH2), the “Cytotoxic activity in vitro” value in the data set with human tumor cells is recorded as “+ (Symbol + indicates the presence of cytotoxicity)”. Moreover, the entries for the “cytotoxic activity / inhibition of cellular proliferation” value in the data set with M14 (melanoma) and with M14 (melanoma) (listed as E07P04) were “showed activity” and “showed cytotoxic activity”, respectively.
In the case of `CC(C)[C@H](NC(=O)[C@@H](NC(=O)[C@H](CC(=O)O)NC(=O)CN)[C@@H](C)O)C(=O)N[C@H]1CSSC[C@@H](C(=O)N[C@@H](CO)C(=O)N[C@H](C(=O)N[C@H](C(=O)N[C@@H](CO)C(N)=O)[C@@H](C)O)[C@@H](C)O)NC(=O)[C@H](Cc2ccccc2)NC(=O)[C@H](CC(=O)O)NC(=O)[C@H](CCCNC(=N)N)NC(=O)CNC(=O)[C@H]([C@@H](C)O)NC(=O)[C@H](CC(N)=O)NC(=O)[C@H](CO)NC(=O)[C@H](CC(N)=O)NC(=O)[C@H](Cc2ccccc2)NC(=O)CNC1=O` [Peptide J08P46s-s] (H-GDTVCGFNSNTGRDFCSTTS-NH2; disulfide 5-16), the survival entry with TC-1 tumor is “intermediate survival block”. Moreover, in data set [1], the GI50 values result is on record as “nm range” and the “effect on the cytotoxic activity of prodigiosin” value was “enhanced”. Moreover, the “decrease of the cytotoxic activity of prodigiosin on primary fibroblasts” value in the data set with primary fibroblasts was “at least one order of magnitude”.
Consider `CC(C)C[C@@H]1NC(=O)[C@H](Cc2ccccc2)NC(=O)[C@H](CC(=O)O)NC(=O)[C@H](CCCNC(=N)N)NC(=O)CNC(=O)[C@H]([C@@H](C)O)NC(=O)[C@H](CC(N)=O)NC(=O)[C@H](CO)NC(=O)[C@H](CC(N)=O)NC(=O)[C@H](Cc2ccccc2)NC(=O)CNC(=O)[C@H](Cc2ccc(O)cc2)NC(=O)[C@H](C(C)C)NC(=O)[C@H]([C@@H](C)O)NC(=O)[C@H](CC(=O)O)NC(=O)CNC(=O)[C@@H](N)CSSC[C@@H](C(N)=O)NC(=O)[C@H](CO)NC(=O)[C@H]([C@@H](C)O)NC(=O)[C@H]([C@@H](C)O)NC(=O)[C@H](CO)NC1=O` [Peptide N06P89] (H-CGDTVYGFNSNTGRDFLSTTSC-NH2; disulfide 1-22), for which, in the data set with M14 (melanoma), the “cytotoxic activity / inhibition of cellular proliferation” value was “inability; also recorded: loss of peptide's biological activity”.
On to `CC[C@H](C)[C@H](NC(=O)CNC(=O)[C@H](CCCCN)NC(=O)[C@H](CCC(N)=O)NC(=O)[C@@H](N)Cc1ccccc1)C(=O)N[C@@H](CC(=O)O)C(=O)N[C@@H](CCCCN)C(=O)N[C@H](C(=O)N[C@@H](CC(=O)O)C(=O)N[C@@H](CC(C)C)C(=O)N[C@@H](CO)C(=O)N[C@@H](Cc1ccccc1)C(=O)N[C@@H](Cc1ccccc1)C(=O)N[C@@H](CC(N)=O)C(=O)N[C@@H](CCCCN)C(=O)N[C@@H](CCC(=O)O)C(=O)N[C@@H](C)C(=O)N[C@@H](CC(N)=O)C(=O)N[C@@H](CO)C(=O)N[C@@H](CO)C(N)=O)[C@@H](C)CC` [Peptide O07P105] (H-FQKGIDKIDLSFFNKEANSS-NH2), for which the “Cytotoxic activity in vitro” value in the data set on human tumor cells is “− (symbol − indicates its absence, following criteria established in Example 2)”.
Same read-out and setting: next, `CC[C@H](C)[C@H](NC(=O)[C@H](Cc1ccccc1)NC(=O)[C@H](CC(=O)O)NC(=O)[C@H](CO)NC(=O)[C@H](CO)NC(=O)[C@H](CC(N)=O)NC(=O)[C@H](C)NC(=O)[C@H](CCC(=O)O)NC(=O)[C@H](CCCCN)NC(=O)[C@H](CC(N)=O)NC(=O)[C@H](Cc1ccccc1)NC(=O)[C@H](Cc1ccccc1)NC(=O)[C@@H](N)CO)C(=O)N[C@@H](Cc1c[nH]cn1)C(=O)N[C@@H](Cc1ccccc1)C(=O)N[C@H](C(=O)N[C@@H](CC(=O)O)C(=O)N[C@@H](Cc1c[nH]cn1)C(=O)N[C@@H](Cc1ccccc1)C(=O)N[C@@H](CO)C(N)=O)C(C)C` [Peptide O07P106] (H-SFFNKEANSSDFIHFVDHFS-NH2): “− (symbol − indicates its absence, following criteria established in Example 2)”; `CC[C@H](C)[C@H](NC(=O)[C@H](Cc1ccccc1)NC(=O)[C@@H](N)CC(=O)O)C(=O)N[C@@H](Cc1c[nH]cn1)C(=O)N[C@@H](Cc1ccccc1)C(=O)N[C@H](C(=O)N[C@@H](CC(=O)O)C(=O)N[C@@H](Cc1c[nH]cn1)C(=O)N[C@@H](Cc1ccccc1)C(=O)N[C@@H](CO)C(=O)NCC(=O)N[C@H](C(=O)N[C@@H](C)C(=O)NCC(=O)N[C@@H](CCC(=O)O)C(=O)N[C@@H](C)C(=O)N[C@@H](CC(C)C)C(=O)N[C@@H](CC(C)C)C(=O)N[C@@H](CO)C(=O)N[C@@H](Cc1ccc(O)cc1)C(N)=O)[C@@H](C)O)C(C)C` [Peptide O07P107] (H-DFIHFVDHFSGTAGEALLSY-NH2): “− (symbol − indicates its absence, following criteria established in Example 2)”; `CC(C)C[C@H](NC(=O)[C@H](C)NC(=O)[C@H](CCC(=O)O)NC(=O)CNC(=O)[C@H](C)NC(=O)[C@@H](NC(=O)CN)[C@@H](C)O)C(=O)N[C@@H](CC(C)C)C(=O)N[C@@H](CO)C(=O)N[C@@H](Cc1ccc(O)cc1)C(=O)N[C@@H](CC(N)=O)C(=O)N[C@@H](C)C(=O)N[C@@H](CO)C(=O)N[C@@H](CO)C(=O)N[C@@H](CC(N)=O)C(=O)N[C@H](C(=O)N[C@H](C(=O)N[C@@H](CC(=O)O)C(=O)N[C@@H](CC(C)C)C(=O)N[C@@H](CO)C(N)=O)[C@@H](C)O)C(C)C` [Peptide O07P108] (H-GTAGEALLSYNASSNVTDLS-NH2): “− (symbol − indicates its absence, following criteria established in Example 2)”.
The same measure, in the same setting: next, `CC[C@H](C)[C@H](NC(=O)[C@H](Cc1ccccc1)NC(=O)[C@H](CC(=O)O)NC(=O)[C@@H](NC(=O)[C@H](C)NC(=O)[C@@H](NC(=O)[C@@H](N)CC(=O)O)C(C)C)[C@@H](C)O)C(=O)N[C@H](C(N)=O)C(C)C` [Peptide U07P78, DVATDFIV- amide] (H-DVATDFIV-NH2): “− (symbol − indicates its absence, following criteria established in Example 2)”; `CC[C@H](C)[C@H](NC(=O)[C@@H](NC(=O)[C@H](CC(=O)O)NC(=O)[C@H](CC(N)=O)NC(=O)CNC(=O)[C@@H](N)CO)C(C)C)C(=O)N[C@H](C(=O)NCC(=O)N[C@@H](CC(N)=O)C(=O)N[C@@H](C)C(=O)N[C@@H](C)C(=O)N[C@@H](CC(N)=O)C(=O)N[C@@H](CC(N)=O)C(=O)N[C@H](C(=O)N[C@@H](CC(C)C)C(=O)N[C@@H](CCCCN)C(=O)NCC(=O)NCC(=O)N[C@@H](C)C(=O)NCC(N)=O)C(C)C)C(C)C` [Peptide Y07P48] (H-SGNDVIVGNAANNVLKGGAG-NH2): “− (symbol − indicates its absence, following criteria established in Example 2)”; “NSQKVIFAAWDAGGNDTFDF- amide (NSQKVIFAAWDAGGNDTFDF-NH2) [Peptide M07P38]”: “− (symbol − indicates its absence, following criteria established in Example 2)”.

The values above are taken from patent US9375459B2, “Cyclic peptides with an anti-neoplasic and anti-angiogenic activity” (priority 2011, dated 2016).
